# Source: patent US9957264B2 (Merck Sharp & Dohme Corp., priority 2013, dated 2018)
# Legend:
# [1] = biological target: JAK2 (recombinant purified GST-tagged catalytic domain) (Homo sapiens (Human), UniProt O60674); test: Jak Biochemical HTRF Assay (JAK2); conditions: [ATP] 8.5 μM
# [2] = biological target: JAK1 (recombinant purified GST-tagged catalytic domain) (Homo sapiens (Human), UniProt P23458); test: Jak Biochemical HTRF Assay (JAK1); conditions: [ATP] 31.8 μM
# In short: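 Phosphorylation of a common biotinylated peptide by each catalytic domain is measured by HTRF. The ATP-started reaction runs 120 min at room temperature before EDTA quench and detection.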
# Sequence of JAK2 (recombinant purified GST-tagged catalytic domain) (O60674 849-1124): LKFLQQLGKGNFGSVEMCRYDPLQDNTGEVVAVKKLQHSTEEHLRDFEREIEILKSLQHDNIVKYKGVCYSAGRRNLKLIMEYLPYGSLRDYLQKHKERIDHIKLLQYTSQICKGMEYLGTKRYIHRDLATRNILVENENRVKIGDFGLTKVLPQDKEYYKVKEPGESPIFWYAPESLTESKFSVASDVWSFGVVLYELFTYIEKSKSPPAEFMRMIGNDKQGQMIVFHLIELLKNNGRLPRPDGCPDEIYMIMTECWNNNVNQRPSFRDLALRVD
# Sequence of JAK1 (recombinant purified GST-tagged catalytic domain) (P23458 875-1153): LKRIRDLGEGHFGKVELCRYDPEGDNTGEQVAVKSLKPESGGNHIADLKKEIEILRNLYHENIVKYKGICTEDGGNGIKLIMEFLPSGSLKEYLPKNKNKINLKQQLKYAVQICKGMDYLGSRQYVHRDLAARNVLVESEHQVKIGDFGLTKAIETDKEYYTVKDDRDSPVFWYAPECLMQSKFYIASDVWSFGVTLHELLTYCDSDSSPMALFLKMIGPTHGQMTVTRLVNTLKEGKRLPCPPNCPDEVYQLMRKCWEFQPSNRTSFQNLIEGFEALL
IC50 [1],IC50 [2],Compound
0.23 nM,0.12 nM,"COC(=O)N1CCC(CC#N)(n2nc(Nc3ccc(S(=O)(=O)C(C)C)cc3)c3c(=O)[nH]ccc32)CC1 [Example 5-149, methyl 4-(cyanomethyl)-4-(3-((4-(isopropylsulfonyl)phenyl)amino)-4-oxo-4,5-dihydro-1H-pyrazolo[4,3-c]pyridin-1-yl)piperidine-1-carboxylate]"
0.32 nM,0.31 nM,"CC(C)(C)OC(=O)N1CCC(CC#N)(n2nc(Nc3cc(Cn4ccnn4)cc(Cn4ccnn4)c3)c3c(=O)[nH]ccc32)CC1 [Example 5-62, tert-butyl 4-(3-(3,5-bis((1H-1,2,3-triazol-1-yl)methyl)phenylamino)-4-oxo-4,5-dihydropyrazolo[4,3-c]pyridin-1-yl)-4-(cyanomethyl)piperidine-1-carboxylate]"
0.47 nM,0.12 nM,"CN(C)S(=O)(=O)c1ccc(Nc2nn(C3(CC#N)CCN(C(=O)O[C@@H]4CCOC4)CC3)c3cc[nH]c(=O)c23)cc1 [Example 11-6, (R)-tetrahydrofuran-3-yl 4-(cyanomethyl)-4-(3-((4-(N,N-dimethylsulfamoyl)phenyl)amino)-4-oxo-4,5-dihydro-1H-pyrazolo[4,3-c]pyridin-1-yl)piperidine-1-carboxylate]"
2 nM,0.3 nM,"COC(=O)N1CCC(CC#N)(n2nc(Nc3ccc(F)cc3)c3c(=O)[nH]ccc32)CC1 [Example 5-146, methyl 4-(cyanomethyl)-4-(3-((4-fluorophenyl)amino)-4-oxo-4,5-dihydro-1H-pyrazolo[4,3-c]pyridin-1-yl)piperidine-1-carboxylate]"
0.88 nM,0.35 nM,"Cc1cc(Nc2nn([C@]3(CC#N)CCCOC3)c3cc[nH]c(=O)c23)ccc1C(=O)N1CCC(C)(O)CC1 [Example 20-4, (S)-2-(3-(3-((4-(4-hydroxy-4-methylpiperidine-1-carbonyl)-3-methylphenyl)amino)-4-oxo-4,5-dihydro-1H-pyrazolo[4,3-c]pyridin-1-yl)tetrahydro-2H-pyran-3-yl)acetonitrile]"
1.16 nM,0.14 nM,"CC(C)(C)OC(=O)[C@@H]1CC[C@@](CC#N)(n2nc(Nc3ccc4nc(C#N)ccc4c3)c3c(=O)[nH]ccc32)CO1 [Example 5-216, (2S,5S)-tert-butyl 5-(cyanomethyl)-5-(3-((2-cyanoquinolin-6-yl)amino)-4-oxo-4,5-dihydro-1H-pyrazolo[4,3-c]pyridin-1-yl)tetrahydro-2H-pyran-2-carboxylate]"
12 nM,1.08 nM,"CN(C)S(=O)(=O)c1ccc(Nc2nn(C3(CC#N)CCN(C(=O)c4ccc(Cl)cc4)CC3)c3cc[nH]c(=O)c23)cc1 [Example 9-13, 4-[(1-{1-[(4-chlorophenyl)carbonyl]-4-(cyanomethyl)piperidin-4-yl}-4-oxo-4,5-dihydro-1H-pyrazolo[4,3-c]pyridin-3-yl)amino]-N,N-dimethylbenzenesulfonamide]"
0.73 nM,0.16 nM,"Cc1cc(C)n(-c2ccc(Nc3nn([C@]4(CC#N)CC[C@@H](C(=O)OC(C)(C)C)OC4)c4cc[nH]c(=O)c34)cc2)n1 [Example 5-218, (2S,5S)-tert-butyl 5-(cyanomethyl)-5-(3-((4-(3,5-dimethyl-1H-pyrazol-1-yl)phenyl)amino)-4-oxo-4,5-dihydro-1H-pyrazolo[4,3-c]pyridin-1-yl)tetrahydro-2H-pyran-2-carboxylate]"
0.37 nM,0.16 nM,"CS(=O)(=O)c1ccc(Nc2nn(C3(CC#N)CCN(c4cc(C(F)(F)F)ccn4)CC3)c3cc[nH]c(=O)c23)cc1 [Example 15-1, 2-(4-(3-((4-(methylsulfonyl)phenyl)amino)-4-oxo-4,5-dihydro-1H-pyrazolo[4,3-c]pyridin-1-yl)-1-(4-(trifluoromethyl)pyridin-2-yl)piperidin-4-yl)acetonitrile]"
2.25 nM,0.12 nM,"CC(C)(C)OC(=O)[C@@H]1CC[C@@](CC#N)(n2nc(Nc3ccnc(F)c3)c3c(=O)[nH]ccc32)CO1 [Example 21-6, (2S,5S)-tert-butyl 5-(cyanomethyl)-5-(3-((2-fluoropyridin-4-yl)amino)-4-oxo-4,5-dihydro-1H-pyrazolo[4,3-c]pyridin-1-yl)tetrahydro-2H-pyran-2-carboxylate]"
0.35 nM,0.25 nM,"CC(C)(C)OC(=O)[C@@H]1CC[C@@](CC#N)(n2nc(Nc3ccc(C4(C(F)(F)F)CCCCN4)cc3)c3c(=O)[nH]ccc32)CO1 (single isomer, unassigned) [Example 5-287, (2S,5S)-tert-butyl 5-(cyanomethyl)-5-(4-oxo-3-((4-((S or R)-2-(trifluoromethyl)piperidin-2-yl)phenyl)amino)-4,5-dihydro-1H-pyrazolo[4,3-c]pyridin-1-yl)tetrahydro-2H-pyran-2-carboxylate]"
0.49 nM,0.18 nM,"CC(C)(C)OC(=O)[C@@H]1CC[C@@](CC#N)(n2nc(Nc3ccc([C@@H](N)C(F)(F)F)cc3)c3c(=O)[nH]ccc32)CO1 (single isomer, unassigned) [Example 5-51, (2S,5S)-tert-butyl 5-(3-((4-((R or S)-1-amino-2,2,2-trifluoroethyl)phenyl)amino)-4-oxo-4,5-dihydro-1H-pyrazolo [4,3-c]pyridin-1-yl)-5-(cyanomethyl)tetrahydro-2H-pyran-2-carboxylate]"
0.06 nM,0.09 nM,"CC(C)NC(C)(C)c1ccc(Nc2nn([C@@]3(CC#N)CCCC[C@H]3F)c3cc[nH]c(=O)c23)cc1 [Example 5-175, [(1R,2R)-2-fluoro-1-{3-[(4-{1-methyl-1-[(1-methylethyl)amino]ethyl}phenyl)amino]-4-oxo-4,5-dihydro-1H-pyrazolo[4,3-c]pyridin-1-yl}cyclohexyl]acetonitrile]"
1.21 nM,0.16 nM,"CN(C)S(=O)(=O)c1ccc(Nc2nn(C3(CC#N)CCN(C(=O)C4CCCCC4)CC3)c3cc[nH]c(=O)c23)cc1 [Example 9-8, 4-({1-[4-(cyanomethyl)-1-(cyclohexylcarbonyl)piperidin-4-yl]-4-oxo-4,5-dihydro-1H-pyrazolo[4,3-c]pyridin-3-yl}amino)-N,N-dimethylbenzenesulfonamide]"
3.45 nM,0.27 nM,"CC(C)(C)OC(=O)N1CC[C@@](CC#N)(n2nc(Nc3ccc(S(C)(=O)=O)cc3)c3c(=O)[nH]ccc32)[C@H](F)C1 (single isomer, unassigned) [Example 5-15, tert-butyl (3R,4S or 3S,4R)-4-(cyanomethyl)-3-fluoro-4-(3-{[4-(methylsulfonyl)phenyl]amino}-4-oxo-4,5-dihydro-1H-pyrazolo[4,3-c]pyridin-1-yl)piperidine-1-carboxylate]"
12.7 nM,0.64 nM,"Cc1cc(C)cc(Nc2nn(C3(CC#N)CCN(C(=O)OC(C)(C)C)CC3)c3cc[nH]c(=O)c23)c1 [Example 5-61, tert-butyl 4-(cyanomethyl)-4-(3-(3,5-dimethylphenylamino)-4-oxo-4,5-dihydropyrazolo[4,3-c]pyridin-1-yl)piperidine-1-carboxylate]"
38.5 nM,5.41 nM,"N#CCC1(n2nc(Nc3ccc(Cl)cc3)c3c(=O)[nH]ccc32)CCC(O)CC1 (stereo not drawn) [Example 18-12, Cis and trans 2-(1-(3-((4-chlorophenyl)amino)-4-oxo-4,5-dihydro-1H-pyrazolo[4,3-c]pyridin-1-yl)-4-hydroxycyclohexyl)acetonitrile]"
0.24 nM,0.15 nM,"CC(C)(C)OC(=O)[C@@H]1CC[C@@](CC#N)(n2nc(Nc3ccc(C4(C(F)(F)F)CCNC4)cc3)c3c(=O)[nH]ccc32)CO1 (single isomer, unassigned) [Example 5-284, (2S,5S)-tert-butyl 5-(cyanomethyl)-5-(4-oxo-3-((4-((R or S)-3-(trifluoromethyl)pyrrolidin-3-yl)phenyl)amino)-4,5-dihydro-1H-pyrazolo[4,3-c]pyridin-1-yl)tetrahydro-2H-pyran-2-carboxylate]"
0.46 nM,0.23 nM,CN(C)S(=O)(=O)c1ccc(Nc2nn(C3(CC#N)CCCC3)c3cc[nH]c(=O)c23)cc1 [Example 5-123]
0.12 nM,0.1 nM,"CN(C)S(=O)(=O)c1ccc(Nc2nn([C@@]3(CC#N)CCN(C(=O)OC(C)(C)C)C[C@H]3F)c3cc[nH]c(=O)c23)cc1 [Example 5-18, tert-butyl (3R,4R)-4-(cyanomethyl)-4-(3-{[4-(dimethylsulfamoyl)phenyl]amino}-4-oxo-4,5-dihydro-1H-pyrazolo [4,3-c]pyridin-1-yl)-3-fluoropiperidine-1-carboxylate]"
0.32 nM,0.2 nM,"CN(C)C(c1ccc(Nc2nn([C@]3(CC#N)CC[C@@H](C(=O)OC(C)(C)C)OC3)c3cc[nH]c(=O)c23)cc1)C(F)(F)F (single isomer, unassigned) [Example 5-214, (2S,5S)-tert-butyl 5-(cyanomethyl)-5-(3-((4-((R or S)-1-(dimethylamino)-2,2,2-trifluoroethyl)phenyl)amino)-4-oxo-4,5-dihydro-1H-pyrazolo[4,3-c]pyridin-1-yl)tetrahydro-2H-pyran-2-carboxylate]"
0.23 nM,0.14 nM,"CC(C)N(C)S(=O)(=O)c1ccc(Nc2nn([C@]3(CC#N)CC[C@@H](C(=O)OC(C)(C)C)OC3)c3cc[nH]c(=O)c23)cc1 [Example 5-91, (2S,5S)-tert-butyl 5-(cyanomethyl)-5-(3-((4-(N-isopropyl-N-methylsulfamoyl)phenyl)amino)-4-oxo-4,5-dihydro-1H-pyrazolo[4,3-c]pyridin-1-yl)tetrahydro-2H-pyran-2-carboxylate]"
21.6 nM,1.97 nM,"N#CCC1(n2nc(Nc3ccc(C(F)(F)F)cc3)c3c(=O)[nH]ccc32)CCC2(CC1)OCCO2 [Example 5-83, 2-(8-(4-oxo-3-((4-(trifluoromethyl)phenyl)amino)-4,5-dihydro-1H-pyrazolo[4,3-c]pyridin-1-yl)-1,4-dioxaspiro[4.5]decan-8-yl)acetonitrile]"
